System: human platelets in platelet-rich plasma
Assay: Platelet aggregation inhibition assay (ADP-induced, platelet-rich plasma)
Assay type: cell-based
Settings: fresh human platelet-rich plasma, aggregation induced by ADP 10 to 15 micromolar; read-out: IC50 (concentration of reagent that inhibits by 50% the aggregation of human platelets)
Procedure: Platelet aggregation studies were performed essentially as described by Zucker (1989, Methods in Enzymol. 169: 117-133). Briefly, platelet aggregation was assayed with or without putative platelet aggregation inhibitory compounds using fresh human platelet-rich plasma comprising 300,000 platelets per microlitre. Platelet aggregation was induced by the addition of a solution of adenosine diphosphate to a final concentration of 10 to 15 micromolar, and the extent of platelet aggregation monitored using a Bio/Data aggregometer (Bio/Data Corp., Horsham. Pa.). The concentrations of platelet aggregation inhibitory compounds used were varied from 0.1 to 500 μg/mL. The concentration of inhibitor that reduced the extent of platelet aggregation by 50% (defined as the IC50) was determined from plots of inhibitor concentration versus extent of platelet aggregation. An inhibition curve for peptide RGDS was determined for each batch of platelets tested as a positive control.
*concentration of reagent that inhibits by 50% the aggregation of human
platelets in plateletrich plasma induced to aggregate by the addition of
adenosine diphosphate (ADP).

GRDGVRGDFCAcm GCAcm amide [Peptide P98]
IC50: 15 µM

Reference: patent US6083481A, “Thrombus imaging agents” (Diatide, Inc., priority 1998, dated 2000)
